Results on 19 compounds are retold here after PMC9542405, “Design, synthesis and antitumor activity of 5-trifluoromethylpyrimidine derivatives as EGFR inhibitors” (Journal of Enzyme Inhibition and Medicinal Chemistry, 2022).

One data set deals with T1, EGFR^wt-TK (Homo sapiens, UniProt P00533).
T1 construct: purchased
In words: In vitro EGFR^wt-TK assay (ELISA kit). In kind it is biochemical. The note with it: mean ± SD of three replicates; for inhibition at 1 µM: read-out: EGFR^wt-TK inhibition rate; for inhibition at 1 µM / EGFR^wt-TK inhibition rate: 1 μM. A general note: ELISA stands for enzyme-linked immunosorbent assay.

A further data set concerns A549 cells. In words: In vitro activity against cancer cell lines (MTT), A549. The note with it: Homo sapiens, mean ± SD of three replicates. In kind it is cell-based.
A further data set has as its system MCF-7 cells. In words: In vitro activity against cancer cell lines (MTT), MCF-7. It is filed as cell-based. The note with it: Homo sapiens, MCF7, mean ± SD of three replicates.
The subject of a further data set is PC-3 cells. In words: In vitro activity against cancer cell lines (MTT), PC-3. The note with it: Homo sapiens, mean ± SD of three replicates. In kind it is cell-based.

Where only a bound is given, the exact number is not on record here.

The term inhibition denotes the drop in the measured response relative to a control, in per cent. Broadly, the IC50 is the concentration that inhibits the measured activity by half. A higher IC50 goes with lower potency. Usually melting point stands for the temperature of the solid-liquid transition.

T1 sequence (P00533 25-1210): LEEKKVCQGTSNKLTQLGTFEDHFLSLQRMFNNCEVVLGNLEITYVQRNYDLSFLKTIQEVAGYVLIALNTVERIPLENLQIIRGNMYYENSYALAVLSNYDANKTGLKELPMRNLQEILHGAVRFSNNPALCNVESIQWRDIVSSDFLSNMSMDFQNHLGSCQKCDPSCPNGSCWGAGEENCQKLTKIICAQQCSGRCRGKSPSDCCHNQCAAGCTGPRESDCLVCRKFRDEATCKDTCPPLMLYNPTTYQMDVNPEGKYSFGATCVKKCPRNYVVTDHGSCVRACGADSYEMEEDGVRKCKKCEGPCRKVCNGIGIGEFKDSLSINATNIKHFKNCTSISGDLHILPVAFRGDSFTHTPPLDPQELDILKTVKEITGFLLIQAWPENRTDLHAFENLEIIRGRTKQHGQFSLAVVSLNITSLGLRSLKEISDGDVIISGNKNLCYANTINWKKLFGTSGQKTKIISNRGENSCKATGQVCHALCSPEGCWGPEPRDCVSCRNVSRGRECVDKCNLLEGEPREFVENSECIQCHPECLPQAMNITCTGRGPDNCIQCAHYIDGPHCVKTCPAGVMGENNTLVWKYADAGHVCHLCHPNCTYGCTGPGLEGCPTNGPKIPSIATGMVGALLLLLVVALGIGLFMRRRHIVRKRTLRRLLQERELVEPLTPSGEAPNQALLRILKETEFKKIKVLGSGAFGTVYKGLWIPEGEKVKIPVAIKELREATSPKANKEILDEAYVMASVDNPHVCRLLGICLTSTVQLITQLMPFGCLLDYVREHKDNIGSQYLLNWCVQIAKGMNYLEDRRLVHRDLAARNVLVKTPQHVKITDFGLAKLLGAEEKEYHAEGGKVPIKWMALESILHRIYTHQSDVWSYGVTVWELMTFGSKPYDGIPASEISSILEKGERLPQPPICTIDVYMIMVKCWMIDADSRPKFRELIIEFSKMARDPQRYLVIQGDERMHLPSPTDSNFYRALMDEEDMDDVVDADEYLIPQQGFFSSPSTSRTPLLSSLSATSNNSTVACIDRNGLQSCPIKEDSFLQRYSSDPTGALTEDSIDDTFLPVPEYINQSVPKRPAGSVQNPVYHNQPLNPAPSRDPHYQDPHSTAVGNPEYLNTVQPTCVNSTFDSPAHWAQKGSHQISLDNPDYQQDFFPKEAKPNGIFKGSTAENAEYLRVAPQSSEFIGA
Description for A549 cells: (§1) Co., Ltd. A549 (Human non-small-cell lung cancer cell line) cells, MCF-7 (Human breast cancer
(§2) cell line) cells, and PC-3 (Human prostate cancer cell line) cells. They were all purchased from the
(§3) Shanghai Cell Bank of the Chinese Academy of Sciences. NRK-52E (Normal rat kidney cell line)
(§4) cells donated by Guizhou Medicinal University were also used to evaluate the cytotoxicity.
Protocol for EGFR^wt-TK: The IC50 values of target compounds against EGFR^wt were calculated from the dose − response curve under Graph-Pad Prism 9, which was tested at the different concentrations.
Description for MCF-7 cells: as §1, §2, §3, §4
Description for PC-3 cells: as §1, §2, §3, §4

The compound `CNC(=O)c1sccc1Nc1nc(Nc2ccc(NC(=O)c3ccccc3)cc2)ncc1C(F)(F)F` [Compound 9a, 3-[2-(4-Benzoylamino-phenylamino)-5-trifluoromethyl-pyrimidin-4-ylamino]-thiophene-2-carboxylic acid methylamide] registered a melting point of 212.5 to 213.8 °C. The inhibition at 1 µM on EGFR^wt-TK is 32.5 ± 2.56%. This compound also registered an IC50 in the data set on A549 cells of 8.51 ± 0.94 µM. In addition, in the data set on MCF-7 cells, it took 11.9 ± 1.36 µM to reach half-maximal inhibition (IC50). In addition, the 50% inhibitory concentration (IC50) in the data set with PC-3 cells came to 14.6 ± 0.83 µM.
In the same order, the values of `CNC(=O)c1sccc1Nc1nc(Nc2ccc(NC(=O)c3ccccc3F)cc2)ncc1C(F)(F)F` [Compound 9b, 3-{2-[4-(2-Fluoro-benzoylamino)-phenylamino]-5-trifluoromethyl-pyrimidin-4-ylamino}-thiophene-2-carboxylic acid methylamide] are 213.3 to 215.4 °C, 46.3 ± 1.85%, 4.03 ± 0.47 µM, 6.05 ± 0.82 µM and 11.2 ± 1.68 µM.
As to `CNC(=O)c1sccc1Nc1nc(Nc2ccc(NC(=O)c3cccc(F)c3)cc2)ncc1C(F)(F)F` [Compound 9c, 3-{2-[4–(3-Fluoro-benzoylamino)-phenylamino]-5-trifluoromethyl-pyrimidin-4-ylamino}-thiophene-2-carboxylic acid methylamide], the melting point is 239.8 to 241.5 °C. At EGFR^wt-TK, the “EGFR^wt-TK inhibition rate” value amounted to 55.48 ± 1.71%, the inhibition at 1 µM was over 50% and the IC50 was determined as 0.31 ± 0.095 µM. This compound also registered a half-maximal inhibitory concentration (IC50) with A549 cells of 2.23 ± 0.42 µM. In addition, the half-maximal inhibitory concentration (IC50) in the data set with MCF-7 cells was found to be 5.32 ± 0.74 µM. Also, the concentration for half-maximal inhibition (IC50) in the data set on PC-3 cells worked out at 16.4 ± 2.27 µM.
Turning to `CNC(=O)c1sccc1Nc1nc(Nc2ccc(NC(=O)c3ccc(F)cc3)cc2)ncc1C(F)(F)F` [Compound 9d, 3-{2-[4-(4-Fluoro-benzoylamino)-phenylamino]-5-trifluoromethyl-pyrimidin-4-ylamino}-thiophene-2-carboxylic acid methylamide], the melting point was in the range of 217.2 to 219.3 °C. The inhibition at 1 µM on EGFR^wt-TK amounted to 49.38 ± 0.47%. For the same compound, in the data set with A549 cells, the midpoint of inhibition, the IC50, lay at 3.75 ± 0.55 µM. Also, the IC50 in the data set on PC-3 cells is 16.7 ± 1.53 µM.
Compound `CNC(=O)c1sccc1Nc1nc(Nc2ccc(NC(=O)c3ccc(F)c(F)c3)cc2)ncc1C(F)(F)F` [Compound 9e, 3-{2-[4-(3,4-Difluoro-benzoylamino)-phenylamino]-5-trifluoromethyl-pyrimidin-4-ylamino}-thiophene-2-carboxylic acid methylamide] displayed a melting point of 218.9 to 219.7 °C. Moreover, on EGFR^wt-TK, the “EGFR^wt-TK inhibition rate” value is 54.49 ± 1.44%, the inhibition at 1 µM is over 50% and the IC50 turned out to be 0.44 ± 0.11 µM. Further, the half-inhibitory concentration (IC50) in the data set on A549 cells came to 2.77 ± 0.59 µM. The compound further showed an IC50 in the data set with PC-3 cells of 17 ± 1.82 µM.
For `CNC(=O)c1sccc1Nc1nc(Nc2ccc(NC(=O)c3cccc(C(F)(F)F)c3)cc2)ncc1C(F)(F)F` [Compound 9f, 3-{5-Trifluoromethyl-2-[4-(3-trifluoromethyl-benzoylamino)-phenylamino]-pyrimidin-4-ylamino}-thiophene-2-carboxylic acid methylamide], the melting point fell in the range of 232 to 233.5 °C. Also, the inhibition at 1 µM on EGFR^wt-TK is 41.1 ± 1.79%. The same compound came in with a concentration for half-maximal inhibition (IC50) in the data set with A549 cells of 5.13 ± 0.46 µM. In the data set on MCF-7 cells, this compound returned a 50% inhibitory concentration (IC50) of 6.54 ± 0.53 µM. In the data set with PC-3 cells, this compound yielded an IC50 of 12.2 ± 1.54 µM.
In the same order, the values of `CNC(=O)c1sccc1Nc1nc(Nc2ccc(NC(=O)c3ccc(OC)cc3)cc2)ncc1C(F)(F)F` [Compound 9g, 3-{2-[4-(4-Methoxy-benzoylamino)-phenylamino]-5-trifluoromethyl-pyrimidin-4-ylamino}-thiophene-2-carboxylic acid methylamide] are 229.4 to 230.6 °C, 28.8 ± 0.62%, 7.63 ± 0.62 µM, 10.1 ± 1.18 µM and over 20 µM.
For the compound `CNC(=O)c1sccc1Nc1nc(Nc2ccc(NC(=O)c3cc(OC)c(OC)c(OC)c3)cc2)ncc1C(F)(F)F` [Compound 9h, 3-{5-Trifluoromethyl-2-[4-(3,4,5-trimethoxy-benzoylamino)-phenylamino]-pyrimidin-4-ylamino}-thiophene-2-carboxylic acid methylamide], the melting point fell in the range of 211.9 to 213.1 °C. Moreover, on EGFR^wt-TK, the “EGFR^wt-TK inhibition rate” value was found to be 56.43 ± 0.51%, the inhibition at 1 µM is over 50% and inhibition was half-maximal at 0.35 ± 0.062 µM (IC50). The compound further returned an IC50 with A549 cells of 1.66 ± 0.54 µM. This compound also had an IC50 with MCF-7 cells of 3.37 ± 0.62 µM. This compound had an IC50 in the data set with PC-3 cells of 11.3 ± 1.42 µM.
In the case of `CCC(=O)Nc1ccc(Nc2ncc(C(F)(F)F)c(Nc3ccsc3C(=O)NC)n2)cc1` [Compound 9i, 3-[2-(4-Propionylamino-phenylamino)-5-trifluoromethyl-pyrimidin-4-ylamino]-thiophene-2-carboxylic acid methylamide], the inhibition at 1 µM on EGFR^wt-TK turned out to be 11.9 ± 0.35%. Also, the figures for the half-maximal inhibitory concentration (IC50) in the data set with A549 cells, in the data set on MCF-7 cells and with PC-3 cells were 17.8 ± 1.67 µM, over 20 µM and over 20 µM, respectively.
Take `CNC(=O)c1sccc1Nc1nc(Nc2ccc(NC(=O)C(C)C)cc2)ncc1C(F)(F)F` [Compound 9j, 3-[2-(4-Isobutyrylamino-phenylamino)-5-trifluoromethyl-pyrimidin-4-ylamino]-thiophene-2-carboxylic acid methylamide]: the inhibition at 1 µM at EGFR^wt-TK was found to be 8.76 ± 0.68%. Besides, the half-maximal inhibitory concentration (IC50) with A549 cells, in the data set on MCF-7 cells and in the data set on PC-3 cells was over 20 µM each time.
Take `C#CC(=O)Nc1ccc(Nc2ncc(C(F)(F)F)c(Nc3ccsc3C(=O)NC)n2)cc1` [Compound 9k, 3-[2-(4-Propynoylamino-phenylamino)-5-trifluoromethyl-pyrimidin-4-ylamino]-thiophene-2-carboxylic acid methylamide]: the “EGFR^wt-TK inhibition rate” value at EGFR^wt-TK is given as 55.73 ± 2.14%. Also, the inhibition at 1 µM at EGFR^wt-TK is over 50%. Besides, the IC50 came out at 0.48 ± 0.073 µM against EGFR^wt-TK, 1.82 ± 0.49 µM in the data set with A549 cells, 4.91 ± 0.83 µM in the data set with MCF-7 cells and 15.4 ± 2.38 µM with PC-3 cells.
In the case of `CNC(=O)c1sccc1Nc1nc(Nc2ccc(NC(=O)C3CC3)cc2)ncc1C(F)(F)F` [Compound 9l, 3-{2-[4-(Cyclopropanecarbonyl-amino)-phenylamino]-5-trifluoromethyl-pyrimidin-4-ylamino}-thiophene-2-carboxylic acid methylamide], the melting point was over 250 °C. On EGFR^wt-TK, the inhibition at 1 µM is 12.6 ± 1.07%. The compound further yielded an IC50 with A549 cells of 16.5 ± 2.31 µM. The compound also registered an IC50 in the data set on MCF-7 cells of over 20 µM. Further, the concentration for half-maximal inhibition (IC50) in the data set on PC-3 cells is over 20 µM.
As for `CNC(=O)c1sccc1Nc1nc(Nc2ccc(NC(=O)C3CCC3)cc2)ncc1C(F)(F)F` [Compound 9m, 3-{2-[4-(Cyclobutanecarbonyl-amino)-phenylamino]-5-trifluoromethyl-pyrimidin-4-ylamino}-thiophene-2-carboxylic acid methylamide], the melting point fell in the range of 236.1 to 236.4 °C. In addition, at EGFR^wt-TK, the inhibition at 1 µM amounted to 13.3 ± 0.83%. The same compound showed an IC50 in the data set on A549 cells of 15.1 ± 2.29 µM. The compound further registered a half-inhibitory concentration (IC50) with MCF-7 cells of over 20 µM. In addition, the 50% inhibitory concentration (IC50) with PC-3 cells is over 20 µM.
Regarding `CNC(=O)c1sccc1Nc1nc(Nc2ccc(NC(=O)C3CCCC3)cc2)ncc1C(F)(F)F` [Compound 9n, 3-{2-[4-(Cyclopentanecarbonyl-amino)-phenylamino]-5-trifluoromethyl-pyrimidin-4-ylamino}-thiophene-2-carboxylic acid methylamide], the melting point lay in the range of 246.4 to 247.2 °C. For the same compound, at EGFR^wt-TK, the inhibition at 1 µM was 18.9 ± 1.14%. The compound also gave a 50% inhibitory concentration (IC50) in the data set on A549 cells of 13.8 ± 1.57 µM. In the data set with MCF-7 cells, the half-maximal inhibitory concentration (IC50) is over 20 µM. The IC50 with PC-3 cells was over 20 µM.
As for `CNC(=O)c1sccc1Nc1nc(Nc2ccc(NC(=O)C3CCCCC3)cc2)ncc1C(F)(F)F` [Compound 9o, 3-{2-[4-(Cyclohexanecarbonyl-amino)-phenylamino]-5-trifluoromethyl-pyrimidin-4-ylamino}-thiophene-2-carboxylic acid methylamide], the melting point was 246.7 to 248.2 °C. Moreover, the inhibition at 1 µM on EGFR^wt-TK stood at 26.6 ± 1.38%. The half-inhibitory concentration (IC50) in the data set with A549 cells stood at 8.49 ± 0.63 µM. The compound further returned a 50% inhibitory concentration (IC50) in the data set on MCF-7 cells of 13.5 ± 1.24 µM. In the data set on PC-3 cells, this compound yielded a half-maximal inhibitory concentration (IC50) of over 20 µM.
For `CNC(=O)c1sccc1Nc1nc(Nc2ccc(NC(=O)C3CCOCC3)cc2)ncc1C(F)(F)F` [Compound 9p, Tetrahydro-pyran-4-carboxylicacid{4-[4-(2-methylcarbamoyl-thiophen-3-ylamino)-5-trifluoromethyl-pyrimidin-2-ylamino]-phenyl}-amide] the same measures were 232.3 to 233.8 °C, 36.46 ± 0.23%, 7.28 ± 0.47 µM, 10 ± 0.96 µM and over 20 µM.
With `CNC(=O)c1sccc1Nc1nc(Nc2ccc(NC(=O)C3CCC(=O)CC3)cc2)ncc1C(F)(F)F` [Compound 9q, N-Methyl-3-((2-((4-(4-oxocyclohexane-1-carboxamido)phenyl)amino)-5-(trifluoromethyl)pyrimidin-4-yl)amino)thiophene-2-carboxamide], at EGFR^wt-TK, the inhibition at 1 µM came out at 35.5 ± 0.89%. Further, the IC50 in the data set with A549 cells is 7.65 ± 0.39 µM; in the data set with MCF-7 cells, 10.6 ± 1.58 µM; in the data set with PC-3 cells it was over 20 µM.
`CNC(=O)c1sccc1Nc1nc(Nc2ccc(NC(=O)C3CCN(C)CC3)cc2)ncc1C(F)(F)F` [Compound 9r, 1-Methyl-piperidine-4-carboxylicacid{4-[4-(2-methylcarbamoyl-thiophen-3-ylamino)-5-trifluoromethyl-pyrimidin-2-ylamino]-phenyl}-amide] registered a melting point of 210.8 to 211.6 °C. On EGFR^wt-TK, the inhibition at 1 µM was determined as 33 ± 0.57%. Further, inhibition with A549 cells was half-maximal at 8.41 ± 0.92 µM (IC50). This compound returned an IC50 in the data set with MCF-7 cells of 11.2 ± 1.47 µM. The compound further returned an IC50 with PC-3 cells of over 20 µM.
For `CNC(=O)c1sccc1Nc1nc(Nc2ccc(NC(=O)C3CCN(C(C)=O)CC3)cc2)ncc1C(F)(F)F` [Compound 9s, 1-Acetyl-piperidine-4-carboxylicacid{4-[4-(2-methylcarbamoyl-thiophen-3-ylamino)-5-trifluoromethyl-pyrimidin-2-ylamino]-phenyl}-amide] the same measures were over 250 °C, 37.1 ± 0.46%, 6.92 ± 0.38 µM, 9.75 ± 0.85 µM and over 20 µM.
